Measured values as given in patent US5486512A, “Quinazoline derivatives as acetylcholinesterase inhibitors” (priority 1994, dated 1996).
Read-outs that look alike come from different tables or passages of the source.

How the values were obtained:
Type in all cases: biochemical
[1] = target: Electric Eel AChE (Electrophorus electricus, UniProt O42275); experiment: Inhibition of electric eel acetylcholinesterase in vitro
Description: (§1) The in vitro data was obtained according to the radiometric assay of C. D. Johnson and R. L. Russell described in Anal. Biochem., 64:229-238 (1975) and modified as described by M. R. Emmerling and H. M. Sobkowicz in Hearings Research, 32:137-146 (1988); the rat brain homogenate acetylcholinesterase inhibition data were obtained by the Ellman assay, described by G. L. Ellman, D. Courtney, V. Andres, and R. M. Feathersome, described in Biochem. Pharmacol. 7:88-95 (1961), and modified as described by M. J. Marks, D. M. Patinkin, L. D. Artman, J. B. Busch, and A. C. Collins in Pharmacol. Biochem. and Behav.15:271-279 (1981), which references are incorporated herein.

[2] = target: T1, Human Red Blood Cell AChE (Homo sapiens, UniProt P22303); experiment: Inhibition of human red blood cell acetylcholinesterase in vitro (radiometric assay of Johnson and Russell, modified)
T1 construct: from tissue; host or cells: human red blood cells
Description: as §1

[3] = target: T2, Rat Brain Homogenate AChE (Rattus norvegicus, UniProt P37136); experiment: Inhibition of rat brain homogenate acetylcholinesterase (Ellman assay, modified); settings: Table I
T2 construct: rat brain homogenate acetylcholinesterase; from tissue; host or cells: rat brain homogenate
Description: as §1

[4] = Table I, read-out: Inhibition of Acetylcholinesterase, Electric Eel AChE
[5] = Table I, read-out: Inhibition of Acetylcholinesterase, Human Red Blood Cell AChE
[6] = Table II, human red blood cell AChE, read-out: IC50 Human AChE
[7] = Table III, electric eel AChE, read-out: IC50 Eel AChE

T2 sequence (P37136 32-614): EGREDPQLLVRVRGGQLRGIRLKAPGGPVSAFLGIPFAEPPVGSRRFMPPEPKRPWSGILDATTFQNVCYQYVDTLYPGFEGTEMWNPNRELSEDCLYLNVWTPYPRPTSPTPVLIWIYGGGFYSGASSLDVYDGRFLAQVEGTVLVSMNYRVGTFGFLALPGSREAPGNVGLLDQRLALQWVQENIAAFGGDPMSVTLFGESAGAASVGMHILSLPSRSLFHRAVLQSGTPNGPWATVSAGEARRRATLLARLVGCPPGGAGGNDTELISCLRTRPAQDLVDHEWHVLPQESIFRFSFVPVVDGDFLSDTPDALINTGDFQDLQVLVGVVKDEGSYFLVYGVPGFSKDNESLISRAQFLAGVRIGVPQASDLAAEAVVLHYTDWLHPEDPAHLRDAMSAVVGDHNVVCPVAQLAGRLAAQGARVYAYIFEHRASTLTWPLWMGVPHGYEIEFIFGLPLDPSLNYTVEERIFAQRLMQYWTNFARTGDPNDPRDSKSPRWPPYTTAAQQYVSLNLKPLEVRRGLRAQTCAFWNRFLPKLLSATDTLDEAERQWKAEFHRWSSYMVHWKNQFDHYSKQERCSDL
T1 sequence (P22303 other isoform, or with tags, fused parts or gaps): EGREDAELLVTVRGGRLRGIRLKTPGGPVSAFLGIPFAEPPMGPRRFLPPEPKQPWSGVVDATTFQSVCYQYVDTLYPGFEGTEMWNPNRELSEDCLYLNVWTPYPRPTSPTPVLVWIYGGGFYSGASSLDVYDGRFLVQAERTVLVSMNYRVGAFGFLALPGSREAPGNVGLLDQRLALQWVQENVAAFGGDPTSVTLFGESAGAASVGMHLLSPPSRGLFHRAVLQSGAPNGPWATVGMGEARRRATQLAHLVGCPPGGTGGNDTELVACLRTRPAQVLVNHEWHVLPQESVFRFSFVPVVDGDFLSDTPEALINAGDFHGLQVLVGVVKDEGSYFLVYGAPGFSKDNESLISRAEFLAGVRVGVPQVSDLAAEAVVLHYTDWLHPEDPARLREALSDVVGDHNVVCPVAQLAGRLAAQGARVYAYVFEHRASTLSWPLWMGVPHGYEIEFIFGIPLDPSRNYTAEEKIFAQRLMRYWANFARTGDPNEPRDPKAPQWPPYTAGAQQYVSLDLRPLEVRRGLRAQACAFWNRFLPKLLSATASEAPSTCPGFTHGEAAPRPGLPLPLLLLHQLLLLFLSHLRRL
Chain of Electric Eel AChE (O42275 24-633): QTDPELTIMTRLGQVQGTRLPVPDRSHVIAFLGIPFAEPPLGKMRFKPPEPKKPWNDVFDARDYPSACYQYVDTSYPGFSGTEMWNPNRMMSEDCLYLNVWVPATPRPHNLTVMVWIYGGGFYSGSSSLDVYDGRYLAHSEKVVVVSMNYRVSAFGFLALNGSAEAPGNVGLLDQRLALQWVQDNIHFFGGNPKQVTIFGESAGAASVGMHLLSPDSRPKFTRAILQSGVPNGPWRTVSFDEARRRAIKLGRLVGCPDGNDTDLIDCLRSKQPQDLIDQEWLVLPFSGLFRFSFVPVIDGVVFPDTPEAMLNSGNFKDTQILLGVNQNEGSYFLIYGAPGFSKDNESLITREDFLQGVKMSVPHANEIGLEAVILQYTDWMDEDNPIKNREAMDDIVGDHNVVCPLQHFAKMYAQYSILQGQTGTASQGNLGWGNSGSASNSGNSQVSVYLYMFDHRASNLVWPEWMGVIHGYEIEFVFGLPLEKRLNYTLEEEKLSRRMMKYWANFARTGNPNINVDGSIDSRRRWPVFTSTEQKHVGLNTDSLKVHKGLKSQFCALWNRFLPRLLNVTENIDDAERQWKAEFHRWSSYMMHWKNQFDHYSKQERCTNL

| SMILES | IC50 [1, 4] | IC50 [2, 5] | also measured |
| --- | --- | --- | --- |
| N#Cc1ccc2c(c1)CN1CCCCCC1=N2 [2-CN, H2] | 1500 nM | 6700 nM |  |
| Fc1ccc2c(c1)N=C1CCCCCN1C2 [3-F, H2, 3-fluoro-6,7,8,9,10,12-hexahydroazepino[2,1-b]quinazoline] | 600 nM | 2870 nM |  |
| Clc1cc(Cl)c2c(c1)N=C1C3CCC(C3)N1C2 (stereo not drawn) |  |  | IC50 [2, 6]: 50 nM |
| Cc1ccc2c(c1)N=C1CCCCCN1C2 [3-CH3, H2, 3-methyl-6,7,8,9,10,12-hexahydroazepino[2,1-b]quinazoline] |  | 610 nM |  |
| Clc1cccc2c1N=C1CCCCCN1C2 [4-Cl, H2, 4-chloro-6,7,8,9,10,12-hexahydroazepino[2,1-b]quinazoline] | 631 nM | 1500 nM |  |
| Clc1ccc(Cl)c2c1CN1CCCCCC1=N2 [1,4-DiCl, H2, 1,4-dichloro-6,7,8,9,10,12-hexahydroazepino[2,1-b]quinazoline] | 100 nM | 631 nM | IC50 [3]: 16400 nM |
| Clc1ccc2c(c1)N=C1CCCCCN1C2 [3-Cl, H2, 3-chloro-6,7,8,9,10,12-hexahydroazepino[2,1-b]quinazoline] | 200 nM |  | IC50 [3]: 1900 nM |
| COc1cc2c(cc1OC)N=C1CCCCCN1C2 [2,3-DiOCH3, H2, 2,3-dimethoxy-6,7,8,9,10,12-hexahydroazepino[2,1-b]quinazoline] | 398 nM | 9000 nM |  |
| c1ccc2c(c1)CN1CCCCCCC1=N2 |  |  | IC50 [1, 7]: 4300 nM |
| Clc1cc(Cl)c2c(c1)N=C1C3CC4CC(C3)CC(C4)N1C2 |  |  | IC50 [2, 6]: 60 nM |
| Cc1cccc2c1N=C1CCCCCN1C2 [4-CH3, H2, 4-methyl-6,7,8,9,10,12-hexahydroazepino[2,1-b]quinazoline] |  | 6000 nM |  |
| c1ccc2c(c1)CN1CCCCCC1=N2 [H, H2] | 610 nM | 1900 nM | IC50 [3]: 16000 nM |
| c1ccc2c(c1)CN1CCCC1=N2 |  |  | IC50 [1, 7]: 1600 nM |
| c1ccc(C2(c3ccccc3)CCC3=Nc4ccccc4CN3C2)cc1 |  |  | IC50 [1, 7]: 370 nM |
| Cc1cc(C)c2c(c1)CN1CCCCCC1=N2 [2,4-DiCH3, H2, 2,4-dimethyl-6,7,8,9,10,12-hexahydroazepino[2,1-b]quinazoline] |  | 900 nM |  |
| Clc1cc(Cl)c2c(c1)N=C1CCCCN1C2 |  |  | IC50 [2, 6]: 60 nM |
| COc1ccc2c(c1)N=C1CCCCCN1C2 [3-OCH3, H2] |  | 2800 nM |  |
| N=c1c2ccc(Cl)cc2nc2n1CCCCC2 [3-Cl, NH, 3-chloro-7,8,9,10-tetrahydroazepino[2,1-b]quinazolin-12(6H)-imine] | 500 nM |  |  |
| O=c1c2c(Cl)cc(Cl)cc2nc2n1CCCCC2 |  |  | IC50 [2, 6]: 63000 nM |
| CC1(C)CC2=Nc3cc(Cl)cc(Cl)c3CN2CC(C)(C)C1 |  |  | IC50 [2, 6]: 2000 nM |
| Cc1c(Cl)cc2c(c1Cl)CN1CCCCCC1=N2 [1,3-DiCl, 2-Me, H2, 1,3-dichloro-2-methyl-6,7,8,9,10,12-hexahydroazepino[2,1-b]quinazoline] |  | 1000 nM |  |
| c1ccc(C2CC3=Nc4ccccc4CN3C2)cc1 (stereo not drawn) |  |  | IC50 [1, 7]: 3100 nM |
| Clc1ccc2c(c1Cl)N=C1CCCCCN1C2 [3,4-DiCl, H2, 3,4-dichloro-6,7,8,9,10,12-hexahydroazepino[2,1-b]quinazoline] | 398 nM | 1500 nM | IC50 [3]: 23800 nM |
| Fc1ccc2c(c1)CN1CCCCCC1=N2 [2-F, H2, 2-fluoro-6,7,8,9,10,12-hexahydroazepino[2,1-b]quinazoline] |  | 2000 nM |  |

| SMILES | IC50 [1, 4] | IC50 [2, 5] | also measured |
| --- | --- | --- | --- |
| c1ccc2c(c1)CN1CCCCCCCC1=N2 |  |  | IC50 [1, 7]: 4000 nM |
| C1=CC2=Nc3ccccc3CN2C=C1 |  |  | IC50 [1, 7]: 1600 nM |
| FC(F)(F)c1ccc2c(c1)N=C1CCCCCN1C2 |  |  | IC50 [1, 7]: 1000 nM |
| Clc1cc2c(cc1Cl)N=C1CCCCCN1C2 [2,3-DiCl, H2, 2,3-dichloro-6,7,8,9,10,12-hexahydroazepino[2,1-b]quinazoline] | 398 nM | 2500 nM | IC50 [3]: 17900 nM |
| Cc1cc(Cl)c2c(c1)CN1CCCCCC1=N2 [2-CH3,4-Cl, H2, 4-chloro-2-methyl-6,7,8,9,10,12-hexahydroazepino[2,1-b]quinazoline] |  | 631 nM |  |
| Fc1cccc2c1N=C1CCCCCN1C2 [4-F, H2, 4-fluoro-6,7,8,9,10,12-hexahydroazepino[2,1-b]quinazoline] | 1500 nM | 1600 nM |  |
| Clc1cc(Cl)c2c(c1)CN1CCCCCC1=N2 [2,4-DiCl, H2, 2,4-dichloro-6,7,8,9,10,12-hexahydroazepino[2,1-b]quinazoline] | 250 nM | 63 nM | IC50 [3]: 3810 nM |
| Fc1cccc2c1CN1CCCCCC1=N2 [1-F, H2, 1-fluoro-6,7,8,9,10,12-hexahydroazepino[2,1-b]quinazoline] |  | 1900 nM |  |
| Clc1ccc2c(c1)CN1CCCCCC1=N2 [2-Cl, H2, 2-chloro-6,7,8,9,10,12-hexahydroazepino[2,1-b]quinazoline] |  | 500 nM |  |
| N=c1c2ccccc2nc2n1CCCCC2 |  |  | IC50 [1, 7]: 2000 nM |
| Cc1c(Cl)ccc2c1CN1CCCCCC1=N2 [1-CH3,2-Cl, H2, 2-chloro-1-methyl-6,7,8,9,10,12-hexahydroazepino[2,1-b]quinazoline] |  | 3980 nM |  |
| Clc1cccc2c1CN1CCCCCC1=N2 [1-Cl, H2, 1-chloro-6,7,8,9,10,12-hexahydroazepino[2,1-b]quinazoline] |  | 1700 nM |  |
| Clc1ccc2c(c1)N=C1CC3CCC(C3)N1C2 (racemic) |  |  | IC50 [2, 6]: 920 nM |
| Clc1cc(Cl)c2c(c1)N=C1CCCN1C2 |  |  | IC50 [2, 6]: 200 nM |
| Cc1ccc2c(c1)CN1CCCCCC1=N2 [2-CH3, H2, 2-methyl-6,7,8,9,10,12-hexahydroazepino[2,1-b]quinazoline] |  | 1800 nM |  |
| O=c1c2ccc(Cl)cc2nc2n1CCCCC2 [3-Cl, O, 3-chloro-7,8,9,10-tetrahydroazepino[2,1-b]quinazolin-12(6H)-one] | 21000 nM |  |  |
| Clc1cc(Cl)c2c(c1)N=C1CCCCCN1C2 [1,3-DiCl, H2, 1,3-dichloro-6,7,8,9,10,12-hexahydroazepino[2,1-b]quinazoline] | 158 nM | 40 nM | IC50 [3]: 172 nM |
| S=c1c2ccc(Cl)cc2nc2n1CCCCC2 [3-Cl, S, 3-Chloro-7,8,9,10-tetrahydroazepino[2,1-b]quinazolin-12(6H)-thione] | 15800 nM |  |  |
| N=c1c2ccccc2nc2n1CCCC2 |  |  | IC50 [1, 7]: 1000 nM |
| Clc1cc(Cl)c2c(c1)N=C1C3CCCC(C3)N1C2 (stereo not drawn) |  |  | IC50 [2, 6]: 1000 nM |
| Clc1ccc2c(c1Cl)CN1CCCCCC1=N2 [1,2-DiCl, H2, 1,2-dichloro-6,7,8,9,10,12-hexahydroazepino[2,1-b]quinazoline] |  | 3160 nM |  |
| Clc1cc(Cl)c2c(c1)N=C1CCC(c3ccccc3)(c3ccccc3)CN1C2 |  |  | IC50 [2, 6]: 63 nM |
| CCc1ccc2c(c1)CN1CCCCCC1=N2 [2-C2 H5, H2, 2-ethyl-6,7,8,9,10,12-hexahydroazepino[2,1-b]quinazoline] | 1000 nM | 2500 nM |  |
